# From ChEMBL document CHEMBL1268831, “Indole alkaloids from Ervatamia hainanensis with potent acetylcholinesterase inhibition activities” (Bioorg Med Chem Lett, 2010)
# Molecular target: Acetylcholinesterase (Electrophorus electricus, UniProt O42275)
# Assay: Inhibition of electric eel AChE by Ellman's method
# Acetylcholinesterase, sequence (O42275 whole entry): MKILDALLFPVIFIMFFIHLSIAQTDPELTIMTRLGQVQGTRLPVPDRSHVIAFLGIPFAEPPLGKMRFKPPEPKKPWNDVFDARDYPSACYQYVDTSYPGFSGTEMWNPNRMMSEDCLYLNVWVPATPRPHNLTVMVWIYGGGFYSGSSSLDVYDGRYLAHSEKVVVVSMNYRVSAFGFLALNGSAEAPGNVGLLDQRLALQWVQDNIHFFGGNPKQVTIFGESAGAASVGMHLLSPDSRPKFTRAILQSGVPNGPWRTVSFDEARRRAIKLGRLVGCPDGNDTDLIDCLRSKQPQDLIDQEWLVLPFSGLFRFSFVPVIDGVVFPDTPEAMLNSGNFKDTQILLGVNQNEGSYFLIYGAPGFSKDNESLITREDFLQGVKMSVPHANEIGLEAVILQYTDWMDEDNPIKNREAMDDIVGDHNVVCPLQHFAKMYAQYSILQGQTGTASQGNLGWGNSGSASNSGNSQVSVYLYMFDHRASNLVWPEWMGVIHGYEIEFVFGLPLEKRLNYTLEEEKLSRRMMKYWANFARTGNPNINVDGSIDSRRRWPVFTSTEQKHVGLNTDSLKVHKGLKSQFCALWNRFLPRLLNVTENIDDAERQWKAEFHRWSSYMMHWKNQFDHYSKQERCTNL
row,SMILES,IC50
1,CC[C@H]1C[C@@H]2CN3CCc4c([nH]c5ccccc45)[C@](C(=O)OC)(C2)[C@H]13 [CORONARIDINE],8.6 µM
2,COC(=O)[C@@]12C[C@@H]3C[C@H]([C@H](C)O)[C@@H]1N(CC[C@]1(O)C2=Nc2ccccc21)C3 [HEYNEANINE HYDROXYINDOLENINE],> 1000 µM
3,COC(=O)[C@@]12C[C@@H]3C[C@H]([C@H](C)O)[C@@H]1N(CCc1c2[nH]c2ccc(OC)cc12)C3 [VOACRISTINE],420 µM
4,CC[C@H]1C[C@@H]2CN3CCc4c([nH]c5ccc(OC)cc45)[C@](C(=O)OC)(C2)[C@H]13 [VOACANGINE],4.4 µM
5,COC(=O)[C@@]12C[C@@H]3C[C@H]([C@@H](C)O)[C@@H]1N(CCc1c2[nH]c2ccc(OC)cc12)C3 [19(R)-HEYNEANINE],730 µM
6,CC[C@H]1C[C@@H]2CN3CCc4c([nH]c5ccc(O)cc45)[C@](C(=O)OC)(C2)[C@H]13,29 µM
7,C/C=C1/CN(C)[C@H]2Cc3c([nH]c4ccccc34)C(=O)C[C@H]1[C@@H]2C(=O)OC [VOBASINE],> 1000 µM
8,CC[C@H]1C[C@@H]2CN3CC[C@]4(O)C(=Nc5ccccc54)[C@](C(=O)OC)(C2)[C@H]13 [CORONARIDINE HYDROXYINDOLENINE],> 1000 µM
